Experimental data: the supplement of paper PMC10307832

What was measured:
Test in all cases: relative viability (nuclei count vs DMSO), 5 days (fraction); higher = more cells survive
ALW-II-49-7 + Dasatinib = compound: Cc1ccc(C(=O)Nc2cccc(C(F)(F)F)c2)cc1Nc1cncc(C(N)=O)c1 [ALW-II-49-7] + Cc1nc(Nc2ncc(C(=O)Nc3c(C)cccc3Cl)s2)cc(N2CCN(CCO)CC2)n1 [Dasatinib] (partner 0.075 µM)
Outline: (§1)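 Dosing by pin tool came one day after lung cancer cell lines were seeded in 1536-well plates, using either one drug or a fixed anchor-drug dose plus five library-drug doses (not always all listed) in √10 steps. After 5 days, nuclei were counted on 4× images. Relative viability is treated-well nuclei count divided by vehicle-well nuclei count, and values are medians of duplicate plates.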

XMD13-2 + Palbociclib = compound: C1CC1C(=O)NC2=NNC3=C2C=CC(=C3)C4=CC(=CC=C4)C(=O)NC5CC5 [XMD13-2] + CC(=O)c1c(C)c2cnc(Nc3ccc(N4CCNCC4)cn3)nc2n(C2CCCC2)c1=O [Palbociclib] (partner 0.5 µM)
Outline: as §1

XMD13-2 + Luminespib = compound: C1CC1C(=O)NC2=NNC3=C2C=CC(=C3)C4=CC(=CC=C4)C(=O)NC5CC5 [XMD13-2] + CCNC(=O)c1noc(-c2cc(C(C)C)c(O)cc2O)c1-c1ccc(CN2CCOCC2)cc1 [Luminespib] (partner 0.01 µM)
Outline: as §1

Dasatinib + Pemetrexed = compound: Cc1nc(Nc2ncc(C(=O)Nc3c(C)cccc3Cl)s2)cc(N2CCN(CCO)CC2)n1 [Dasatinib] + Nc1nc2[nH]cc(CCc3ccc(C(=O)N[C@@H](CCC(=O)O)C(=O)O)cc3)c2c(=O)[nH]1 [Pemetrexed] (partner 0.2 µM)
Outline: as §1

Cell Line	relative viability (ALW-II-49-7 + Dasatinib; first compound 0.08 µM)	relative viability (ALW-II-49-7 + Dasatinib; first compound 0.253 µM)	relative viability (ALW-II-49-7 + Dasatinib; first compound 0.8 µM)	relative viability (ALW-II-49-7 + Dasatinib; first compound 2.53 µM)	relative viability (ALW-II-49-7 + Dasatinib; first compound 8 µM)	relative viability (XMD13-2 + Palbociclib; first compound 0.05 µM)	relative viability (XMD13-2 + Palbociclib; first compound 0.1581 µM)	relative viability (XMD13-2 + Palbociclib; first compound 0.5 µM)	relative viability (XMD13-2 + Palbociclib; first compound 1.581 µM)	relative viability (XMD13-2 + Palbociclib; first compound 5 µM)	relative viability (XMD13-2 + Luminespib; first compound 0.05 µM)	relative viability (XMD13-2 + Luminespib; first compound 0.1581 µM)	relative viability (XMD13-2 + Luminespib; first compound 0.5 µM)	relative viability (XMD13-2 + Luminespib; first compound 1.581 µM)	relative viability (XMD13-2 + Luminespib; first compound 5 µM)	relative viability (Dasatinib + Pemetrexed; first compound 0.005 µM)	relative viability (Dasatinib + Pemetrexed; first compound 0.01581 µM)	relative viability (Dasatinib + Pemetrexed; first compound 0.05 µM)	relative viability (Dasatinib + Pemetrexed; first compound 0.1581 µM)	relative viability (Dasatinib + Pemetrexed; first compound 0.5 µM)
NCI-H1355	0.615	0.731	0.622	0.573	0.658	0.442	0.365	0.42	0.398	0.425	0.723	0.726	0.732	0.725	0.759	1.04	0.92	1.1	0.806	0.663
NCI-H1395	0.436	0.457	0.407	0.431	0.417	0.757	0.634	0.631	0.656	0.715	0.669	0.668	0.809	0.66	0.83	0.987	1.01	0.603	0.369	0.368
NCI-H1437	0.414	0.404	0.425	0.309	0.333	0.297	0.299	0.335	0.327	0.255	1.16	1.14	1.1	1.04	1.19	0.351	0.336	0.287	0.256	0.203
NCI-H1650	0.273	0.306	0.323	0.282	0.341	0.29	0.399	0.385	0.332	0.312	0.187	0.21	0.209	0.19	0.21	0.341	0.38	0.287	0.285	0.268
NCI-H1651	0.317	0.393	0.432	0.507	0.517	0.543	0.507	0.508	0.527	0.503	0.969	0.916	0.714	0.773	0.886	0.58	0.506	0.485	0.545	0.426
NCI-H1666	0.845	0.81	0.794	0.767	0.835	0.629	0.685	0.67	0.665	0.675	1	0.992	0.965	1.03	1.01	0.871	0.848	0.88	0.73	0.633
NCI-H1734	0.483	0.414	0.485	0.463	0.332	0.413	0.332	0.361	0.358	0.297	0.259	0.179	0.179	0.192	0.177	0.377	0.416	0.387	0.376	0.341
NCI-H1755	0.397	0.442	0.459	0.408	0.308	0.468	0.444	0.457	0.474	0.409	0.441	0.502	0.419	0.44	0.433	0.465	0.357	0.413	0.346	0.235
